This is an account of results in patent US8541404B2, “Inhibitors of the human aldosterone synthase CYP11B2” (ElexoPharm GmbH, priority 2009, dated 2013).

The melting point is the temperature, or range, at which the solid turns liquid.

Structures can show the parent of a compound that is named as a salt. Where only a bound is given, the exact number is not on record here.

Molecule `S=C1CCc2cc(-c3cccnc3)cc3c2N1CC3` (as salt: HCl) [Example 22, 8-Pyridin-3-yl-1,2,5,6-tetrahydro-pyrrolo[3,2,1-ij]quinoline-4-thione] yielded a melting point of 283 °C.
To `O=C1CCc2cc(-c3cncc(O)c3)cc3c2N1CC3` (as salt: HCl) [Example 23, 8-(5-Hydroxypyridin-3-yl)-1,2,5,6-tetrahydro-pyrrolo[3,2,1-ij]quinolin-4-one] belongs greater than 300 °C.
As for `CN1C(=O)CCc2cc(-c3cccnc3)ccc21` [Example 2, 1-Methyl-6-pyridin-3-yl-3,4-dihydro-1H-quinolin-2-one], the figure is 101 °C; as for `COc1cncc(-c2ccc3c(c2)CCC(=O)N3)c1` [Example 4, 6-(5-Methoxypyridin-3-yl)-3,4-dihydro-1H-quinolin-2-one], 215 °C; as for `CC(C)N1C(=O)CCc2cc(-c3cccnc3)ccc21` [Example 10, 1-Isopropyl-6-pyridin-3-yl-3,4-dihydro-1H-quinolin-2-one], 101 °C.
Regarding `O=C1CCc2cc(-c3cccnc3)cc3c2N1CC3` [Example 11, 8-Pyridin-3-yl-1,2,5,6-tetrahydro-pyrrolo[3,2,1-ij]quinoline-4-one], the melting point was determined as 152 °C.
`O=C1CCc2cc(-c3cccnc3)cc([N+](=O)[O-])c2N1` [Example 13, 8-Nitro-6-pyridin-3-yl-3,4-dihydro-1H-quinolin-2-one] registered a melting point of 189 °C.
As for `S=C1CCc2cc(-c3cccnc3)cc(Cl)c2N1` [Example 15, 8-Chloro-6-pyridin-3-yl-3,4-dihydro-1H-quinoline-2-thione], the figure is 175 °C; as for `O=C1CCc2cc(-c3cccnc3)cc3c2N1CCC3` [Example 16, 9-Pyridin-3-yl-1,2,6,7-tetrahydro-5H-pyrido[3,2,1-ij]quinolin-3-one], 123 °C; as for `COc1cncc(-c2cc3c4c(c2)CCN4C(=O)CC3)c1` [Example 17, 8-(5-Methoxypyridin-3-yl)-1,2,5,6-tetrahydro-pyrrolo[3,2,1-ij]quinolin-4-one], 172 °C.
Regarding `O=C1CCc2cc(-c3cncc4ccccc34)cc3c2N1CC3` [Example 18, 8-Isoquinolin-4-yl-1,2,5,6-tetrahydro-pyrrolo[3,2,1-ij]quinolin-4-one], the melting point was 185 °C.
As for `O=C1CCc2cc(-c3cncc4ccccc34)cc3c2N1CCC3` [Example 20, 9-Isoquinolin-4-yl-1,2,6,7-tetrahydro-5H-pyrido[3,2,1-ij]quinolin-3-one], the figure is 159 °C; as for `O=C1CCc2cc(-c3cncnc3)ccc2N1` [Example 21, 6-Pyrimidin-5-yl-3,4-dihydro-1H-quinolin-2-one], 233 °C.
For `CC1(C)CC(=O)N2CCc3cc(-c4cccnc4)cc1c32` [Example 24, 6,6-Dimethyl-8-pyridin-3-yl-1,2,5,6-tetrahydro-pyrrolo[3,2,1-ij]quinolin-4-one], the melting point is 180 °C.
Regarding `CCOc1cncc(-c2cc3c4c(c2)CCN4C(=O)CC3)c1` [Example 25, 8-(5-Ethoxypyridin-3-yl)-1,2,5,6-tetrahydro-pyrrolo[3,2,1-ij]quinolin-4-one], the melting point amounted to 172 °C.
To `O=C1CCc2cc(-c3cncc(C(F)(F)F)c3)cc3c2N1CC3` [Example 26, 8-(5-Trifluoromethylpyridin-3-yl)-1,2,5,6-tetrahydro-pyrrolo[3,2,1-ij]quinolin-4-one] belongs 212 °C.
With `O=C1CCc2cc(-c3cncc(F)c3)cc3c2N1CC3` [Example 27, 8-(5-Fluoropyridin-3-yl)-1,2,5,6-tetrahydro-pyrrolo[3,2,1-ij]quinolin-4-one], the melting point is 158 °C.
To `O=C1CCc2cc(-c3ccncc3)cc3c2N1CC3` [Example 29, 8-Pyridin-4-yl-1,2,5,6-tetrahydro-pyrrolo[3,2,1-ij]quinolin-4-one] belongs 174 °C.
As for `O=C1CCc2cc(-c3cncnc3)cc3c2N1CC3` [Example 30, 8-Pyrimidin-5-yl-1,2,5,6-tetrahydro-pyrrolo[3,2,1-ij]quinolin-4-one], the melting point came out at 186 °C.
To `O=C(c1ccncc1)c1cc2c3c(c1)CCN3C(=O)CC2` [Example 31, 8-(Pyridine-4-carbonyl)-1,2,5,6-tetrahydro-pyrrolo[3,2,1-ij]quinolin-4-one] belongs 184 °C.
To `O=C(c1cccnc1)c1cc2c3c(c1)CCN3C(=O)CC2` [Example 32, 8-(Pyridine-3-carbonyl)-1,2,5,6-tetrahydro-pyrrolo[3,2,1-ij]quinolin-4-one] belongs 147 °C; to `O=C1CCc2cc(-c3cncc(-c4ccccc4)c3)cc3c2N1CC3` [Example 33, 8-(5-Phenylpyridin-3-yl)-1,2,5,6-tetrahydro-pyrrolo[3,2,1-ij]quinolin-4-one], 189 °C; to `CC(C)Oc1cncc(-c2cc3c4c(c2)CCN4C(=O)CC3)c1` [Example 34, 8-(5-Isopropoxypyridin-3-yl)-1,2,5,6-tetrahydro-pyrrolo[3,2,1-ij]quinolin-4-one], 155 °C.
`CC(c1cc2c3c(c1)CCN3C(=O)CC2)n1ccnc1` (centres unmarked) [Example 35, 8-(1-Imidazol-1-yl-ethyl)-1,2,5,6-tetrahydro-pyrrolo[3,2,1-ij]quinolin-4-one] yielded a melting point of 197 °C.
For the molecule `O=C1CCc2cc(-c3cncc(-c4ccc(F)cc4)c3)cc3c2N1CC3` [Example 36, 8-[5-(4-Fluorophenyl)-pyridin-3-yl]-1,2,5,6-tetrahydro-pyrrolo[3,2,1-ij]quinolin-4-one], the melting point amounted to 233 °C.
Take `O=C1CCc2cc(-c3cncc(-c4cccc(F)c4)c3)cc3c2N1CC3` [Example 37, 8-[5-(3-Fluorophenyl)-pyridin-3-yl]-1,2,5,6-tetrahydro-pyrrolo[3,2,1-ij]quinolin-4-one]: the melting point came to 181 °C.
As to `O=C1CCc2cc(-c3cccnc3)cc(F)c2N1` [Example 46], the melting point amounted to 203 °C.
To `O=C1CCc2cc(-c3cccnc3)c(F)cc2N1` [Example 47] belongs 228 °C; to `O=C1CCc2cc(-c3cncc4ccccc34)cc(F)c2N1` [Example 48, 8-Fluoro-6-isoquinolin-4-yl-3-yl-3,4,4a,8a-tetrahydro-1H-quinolin-2-one], 202 °C; to `O=C1CCc2cc(-c3cncc4ccccc34)c(F)cc2N1` [Example 49], 281 °C.
`O=C1CCc2cc(-c3cccnc3)c(O)cc2N1` [Example 50] had a melting point of 298 °C.
To `Fc1cc(-c2cccnc2)cc2c1NC(=S)CC2` [Example 51] belongs 235 °C; to `Fc1cc2c(cc1-c1cccnc1)CCC(=S)N2` [Example 52], 248 °C; to `O=C1COc2cc(-c3cccnc3)ccc2N1` [Example 53, 7-(Pyridin-3-yl)-2H-benzo[b][1,4]oxazin-3(4H)-one], 256 °C.
Regarding `O=C1COc2cc(-c3cncc4ccccc34)ccc2N1` [Example 55, 7-(Isoquinolin-4-yl)-2H-benzo[b][1,4]oxazin-3(4H)-one], the melting point turned out to be 266 °C.
